Results: patent US20070037752A1, “Novel alanyl-amino peptidase inhibitors for functionally influencing different cells and treating immunological, inflammatory, neuronal, and other diseases” (priority 2003, published 2007)
Like-named read-outs stand apart in the source and are kept apart here.

Target: alanyl aminopeptidases (APN) (Homo sapiens, UniProt P15144)
Test: Inhibition of alanyl aminopeptidase enzymatic activity, fluorogenic substrate (Ala)2-rhodamine 110
Type: biochemical
Description: The inhibition characteristics measured are referred to as IC-50 values or ID50 values (the latter marked with “*”) for said enzyme. The enzymatic activity was determined by means of the fluorogenic substrate/product (Ala)2-rhodamine 110.

[1] = Table 3, unstarred values, read-out: IC50APN
[2] = Table 9, unstarred values, read-out: IC50APN
[3] = Table 3, starred values = ID50, read-out: ID50 APN (values marked with *)
[4] = Table 4, starred values = ID50, read-out: ID50 APN (values marked with *)
[5] = Table 4, unstarred values, read-out: IC50APN

alanyl aminopeptidases (APN), sequence (P15144 whole entry, species assumed): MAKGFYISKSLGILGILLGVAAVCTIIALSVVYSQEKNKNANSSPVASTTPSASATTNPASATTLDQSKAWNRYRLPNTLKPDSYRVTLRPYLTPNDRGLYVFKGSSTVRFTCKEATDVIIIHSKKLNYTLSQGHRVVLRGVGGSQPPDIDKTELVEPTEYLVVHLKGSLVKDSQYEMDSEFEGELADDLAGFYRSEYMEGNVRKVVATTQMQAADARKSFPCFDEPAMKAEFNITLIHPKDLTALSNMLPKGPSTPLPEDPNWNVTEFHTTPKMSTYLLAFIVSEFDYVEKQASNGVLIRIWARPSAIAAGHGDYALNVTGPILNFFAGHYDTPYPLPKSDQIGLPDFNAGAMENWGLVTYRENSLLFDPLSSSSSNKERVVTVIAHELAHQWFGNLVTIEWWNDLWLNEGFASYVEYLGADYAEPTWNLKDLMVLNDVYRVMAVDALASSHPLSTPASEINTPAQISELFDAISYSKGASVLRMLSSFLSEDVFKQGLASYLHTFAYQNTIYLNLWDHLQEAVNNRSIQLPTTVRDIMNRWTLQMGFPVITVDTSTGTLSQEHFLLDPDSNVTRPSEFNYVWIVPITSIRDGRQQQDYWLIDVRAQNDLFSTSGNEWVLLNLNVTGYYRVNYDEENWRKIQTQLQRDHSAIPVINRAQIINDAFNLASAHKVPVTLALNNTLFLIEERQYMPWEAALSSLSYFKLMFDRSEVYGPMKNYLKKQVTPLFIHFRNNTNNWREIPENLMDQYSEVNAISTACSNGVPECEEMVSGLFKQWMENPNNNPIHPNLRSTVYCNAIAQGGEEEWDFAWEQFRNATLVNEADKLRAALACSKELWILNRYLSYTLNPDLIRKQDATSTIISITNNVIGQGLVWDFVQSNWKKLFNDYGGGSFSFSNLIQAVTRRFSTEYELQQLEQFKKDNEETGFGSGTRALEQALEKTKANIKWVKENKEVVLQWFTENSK

`O=C(N/N=C(/CC(=O)c1cccs1)C(F)(F)F)c1cccc([N+](=O)[O-])c1` [A11.005] gave an IC50 (Table 11, read-out: IC50APN) of 10.7 µM.

Compound `CCOc1ccccc1NC(=O)c1c(NCc2cccc(OC)c2)sc2c1CCC2` [A3.279] has an IC50 [1] of 58.4 µM.

Work on `Cc1ccc(NC(=O)/C(=C\c2ccco2)NC(=O)c2ccccc2Cl)cc1` [A12.033] yielded an IC50 (Table 12, read-out: IC50APN) of 17.9 µM.

`CCc1c(C)nc2ccccc2c1SCC(=O)O` [A9.112] was tested, and the IC50 [2] was 77.4 µM.

In the case of `Cc1ccc(C(=O)N/C(=C\c2ccco2)C(=O)N2CCCN(C)CC2)cc1C` [A10.007], the IC50 (Table 10, read-out: IC50APN) is reported as 32.1 µM.

With `COc1cc(Br)ccc1OCC(=O)N/N=C/C=C/c1ccco1` [A3.043] the IC50 [1] was 11 µM.

`O=C(CN1C(=O)C2C3C=CC(C3)C2C1=O)Nc1ccc(C(F)(F)F)cc1` (centres unmarked) [A3.337] was tested, and the IC50 [3] was 223 µM.

`CC1=C(C#N)C(=O)N(CCCO)C(=O)/C1=C\c1ccc(-c2ccc(Br)cc2)o1` [A13.007] showed an IC50 (Table 13, read-out: IC50APN) of 16 µM.

In the case of `O=C(N/N=C/c1ccco1)c1cccc(NC(=O)c2ccccc2Cl)c1` [A3.110], the IC50 [1] is reported as 20.6 µM.

For `C/C(=N\NC(=O)c1ccn(C)n1)c1ccco1` [A4.186], the IC50 [4] was 323 µM.

Compound `CC(=O)c1ccc(NC(=O)/C=C/c2ccc(C)o2)cc1` [A3.272] has an IC50 [1] of 54.4 µM.

Compound `COC(=O)C1=C(C(=O)OC)C(c2cc(Br)ccc2O)c2sc(O)nc2S1` (centres unmarked) [A8.003] has an IC50 (Table 8, unstarred values, read-out: IC50APN) of 4.7 µM.

For `O=C1C(=Cc2ccc([N+](=O)[O-])o2)C(=O)c2ccccc21` [A3.295], the IC50 [1] was 68 µM.

Compound `CC1CCc2c(sc(NC(=O)C(C(F)(F)F)C(F)(F)F)c2C#N)C1` (centres unmarked) [A13.022] has an IC50 (Table 13, read-out: IC50APN) of 51.3 µM.

`COC(=O)N/N=C(C)\C=C\c1ccco1` [A4.025] gave an IC50 [5] of 13.5 µM.

`CCOC(=O)N1CCc2c(sc(NC(=O)c3ccc(F)cc3)c2C(=O)Nc2ccc(Br)cc2)C1` [A3.026] gave an IC50 [1] of 7.3 µM.

For `CC1=C(C#N)C(=O)N(CC(C)O)C(=O)/C1=C/c1ccc(-c2cccc(Cl)c2C)o1` (centres unmarked) [A13.014], the IC50 (Table 13, read-out: IC50APN) was 28.6 µM.

Compound `Cc1ccc(OCC(=O)N/N=C\c2ccco2)c(C)c1` [A4.168] has an IC50 [4] of 81.8 µM.

Compound `O=C(CCc1ccccc1)N/N=C/c1ccco1` [A4.162] has an IC50 [5] of 74.7 µM.

Compound `COC(=O)c1c(N)ncn1-c1ccccc1` [A3.323] has an IC50 [3] of 126 µM.

`CC1=C(C#N)C(=O)N(CCO)C(=O)/C1=C\c1ccc(-c2ccc(C)c(Cl)c2)o1` [A13.024] was tested, and the IC50 (Table 13, read-out: IC50APN) was 125 µM.

Work on `CCOC(=O)C1=C2SCC(=O)N2C(N)=C(C#N)C1` [A9.061] yielded an IC50 [2] of 23.1 µM.

Compound `CN(C)CCCN1CCN(c2nc(N(C)CC(=O)O)c3ncn(Cc4ccc(C(F)(F)F)cc4)c3n2)CC1` [A9.060] has an IC50 [2] of 23 µM.

`CC1=C(C#N)C(=O)N(CC(C)O)C(=O)/C1=C/c1ccc(-c2cccc(Cl)c2C)o1` (centres unmarked) [A9.072] gave an IC50 [2] of 28.6 µM.

Work on `Cc1ccc(/C=N/NC(=O)c2nnn(-c3nonc3N)c2CN2CCOCC2)o1` [A3.163] yielded an IC50 [1] of 26.7 µM.

`COC(=O)C1=C(N)N2C(=O)CSC2=C(C(=O)OC)C1` [A9.001] was tested, and the IC50APN (Table 9, unstarred values) was “‘very high ac- tive’, beyond measure”.

`O=C(CCC(=O)Nc1cccc(Cl)c1)N/N=C/c1ccco1` [A3.206] was tested, and the IC50 [1] was 34 µM.

`N#Cc1c(NC(=O)C(C(F)(F)F)C(F)(F)F)sc2c1CCCC2` [A3.299] showed an IC50 [1] of 71.4 µM.

`Cc1ccc(/C=N/NC(=O)c2cccc(I)c2)o1` [A4.096] showed an IC50 [5] of 30 µM.

Work on `O=C(Nc1cccc(/N=C/c2cc(Br)cc(Br)c2O)c1)c1ccco1` [A5.003] yielded an IC50 (Table 5, unstarred values, read-out: IC50APN) of 8.2 µM.

`Cc1cccc(C(=O)Nc2ccc(C(=O)N/N=C/c3ccc4c(c3)OCO4)cc2)c1` [A3.203] was tested, and the IC50 [3] was 33.8 µM.

`Cn1c(=O)c2c(ncn2CC(=O)N/N=C/C=C\c2ccco2)n(C)c1=O` [A3.307] showed an IC50 [3] of 79.8 µM.

`O=C1C(Cc2ccc(O)cc2)NC(=S)N1C1CCCCC1` (centres unmarked) [A3.118] showed an IC50 [1] of 21.3 µM.

`Cc1nc(N)sc1C(=O)N/N=C/c1ccco1` [A3.052] showed an IC50 [1] of 12.3 µM.

`C=CCN1C(=O)C(C#N)=C(C)/C(=C\c2ccc(-c3cc(C)c(C)cc3[N+](=O)[O-])o2)C1=O` [A3.180] gave an IC50 [1] of 29.3 µM.

`Cc1ccc(S(=O)(=O)N(Cc2ccc(Cl)cc2)c2ccccc2C(=O)N/N=C/c2ccco2)cc1` [A6.008] was tested, and the IC50 (Table 6, read-out: IC50APN) was 16.4 µM.

For `O=C(CNC(=O)c1ccccc1)N/N=C/c1ccco1` [A3.259], the IC50 [3] was 49.4 µM.

`CCc1cccc(CC)c1NC(=S)N/N=C1\C(=O)N(CN2CC(C)CC(C)C2)c2ccccc21` (centres unmarked) [A7.002] was tested, and the IC50 (Table 7, read-out: IC50APN) was 6.7 µM.
